Data: patent publication US12268739B2, “Use of toll-like receptor 2 (TLR-2) agonist for modulating human immune response” (Children's Medical Center Corporation, priority 2018, dated 2025)
“Also recorded” adds a separate entry of the source.

Tests used:
human adult PBMCs = experiment: Cytokine production by stimulated human adult PBMCs (ELISA / multiplex); format: cell-based
Procedure: ELISAs and Multiplex-Analyte Assays. Supernatants derived from human PBMCs stimulations were assayed by ELISA for TNF and IL-6 (ThermoFisher Scientific; Waltham, MA, USA). Cytokine and chemokine expression profiles (e.g., IFNγ, IL-9, IL-10, IL-12 (p70), IL-13, IL-1β, IL-23, IL-27, IL-28A, IL-33, IL-6, MIP-3α/CCL20, and TNF) in cell culture supernatants were measured using a customized Milliplex® Human Th17 Magnetic Bead Panel according to the manufacturer's instructions (Millipore, Chicago, IL, USA). Assays were read and analyzed on the Luminex® 100/200TM System and xPOTENT® software (Luminex, Austin, TX). A minimum threshold was set at the minimum detectable concentration for each individual assay, defined as three standard deviations above the mean background.
PBMCs were isolated from blood using a Ficoll density gradient. PBMCs either used fresh or were stored at 5×10^7 cells per vial in 1 mL RPMI containing 20% autologous plasma and 10% DMSO at −80° C. until use. […] PBMCs isolated from human adult donors or THP1-NF-κB cells were resuspended at a concentration of 10^5 cells/200 μl of RPMI supplemented with 10% of platelet-poor plasma or THP1 culture medium, respectively. […] After 24 hours of incubation (37° C., 5% CO2), plates were spun down (500×g, room temperature, 5 minutes) and supernatants were harvested for further analysis.

human TLR2 = target: T1, human TLR2 (Homo sapiens, UniProt O60603); experiment: HEK-Blue human TLR cell screening (NF-κB SEAP reporter); format: cell-based; settings: compounds at 10 μM, fold change over negative controls; listed as 080
T1 construct: expressed in transfected cells; host or cells: HEK-Blue (human embryonic kidney) cells with an NF-kB-inducible SEAP reporter
T1 sequence (O60603 21-784): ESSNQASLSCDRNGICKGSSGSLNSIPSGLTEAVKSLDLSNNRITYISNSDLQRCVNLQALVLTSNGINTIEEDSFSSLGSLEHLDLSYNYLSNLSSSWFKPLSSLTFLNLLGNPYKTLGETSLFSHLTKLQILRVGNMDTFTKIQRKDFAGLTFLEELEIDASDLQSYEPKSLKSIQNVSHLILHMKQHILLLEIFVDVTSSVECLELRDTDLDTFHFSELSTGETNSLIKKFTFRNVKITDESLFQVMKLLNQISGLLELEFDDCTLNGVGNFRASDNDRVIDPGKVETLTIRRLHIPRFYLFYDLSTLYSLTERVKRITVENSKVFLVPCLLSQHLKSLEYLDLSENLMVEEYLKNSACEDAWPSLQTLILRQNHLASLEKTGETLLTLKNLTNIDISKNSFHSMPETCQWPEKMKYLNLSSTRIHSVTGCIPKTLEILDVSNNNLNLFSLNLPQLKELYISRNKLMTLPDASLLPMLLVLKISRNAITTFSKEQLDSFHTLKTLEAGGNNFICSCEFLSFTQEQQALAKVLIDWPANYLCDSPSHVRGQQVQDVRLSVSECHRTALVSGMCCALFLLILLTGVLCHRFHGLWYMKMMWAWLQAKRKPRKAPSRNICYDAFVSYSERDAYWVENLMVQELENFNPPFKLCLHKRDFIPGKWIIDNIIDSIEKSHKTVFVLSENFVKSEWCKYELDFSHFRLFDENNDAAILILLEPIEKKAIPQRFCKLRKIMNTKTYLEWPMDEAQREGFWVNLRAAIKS
Procedure: HEK cell screening. Human embryonic kidney (HEK)-Blue cell lines expressing human TLRs (hTLRs) and a secreted embryonic alkaline phosphatase (SEAP) reporter under the control of an NF-κB-inducible promoter were cultured in 96-well plates (50,000-75,000 cells/200 μl/well) and stimulated with the indicated compounds at 10 µM or positive controls. The media added to the wells is designed for detection of NF-κB-induced SEAP expression. After 16-24 hours of incubation optical density (OD) was read at 650 nm on a Molecular Devices SpectraMax 340PC absorbance detector. Positive controls employed in this assay were: heat-killed Listeria monocytogenes (1×10^8 cells/ml) for hTLR2, Poly (I:C) HMW (1 μg/ml) for hTLR3, ? E. coli K12 LPS (100 ng/ml) for hTLR4, S. typhimurium flagellin (100 ng/ml) for hTLR5, CL307 (1 μg/ml) for hTLR7, CL075 (1 μg/ml) for hTLR8 and CpG ODN 2006 (1 μg/ml) for hTLR9.

C57BL/6 mice = experiment: Mouse immunization with rHA, anti-rHA IgG titers by ELISA; format: in vivo; settings: adult C57BL/6 mice, rHA formulated with compound (100 nmol) i.m., prime Day 0, boost Day 28, versus rHA alone; listed as 080
Procedure: C57BL/6 mice were obtained from Charles River Laboratories and housed in specific pathogen-free conditions in the animal research facilities at Boston Children's Hospital.
For immunization experiments, adult mice were immunized intramuscularly (i.m.) in the right posterior thigh with 50 μl of vaccine containing 0.33 μg of each of the following recombinant influenza virus hemagglutinins (rHA): A/Michigan/45/2015 (H1N1), A/Hong Kong/4801/2014 (H3N2), and B/Brisbane/60/2008, contained in the 2016-2017 formulation of the FluBlok vaccine (Protein Sciences Corp.). Mice were immunized with a prime-boost schedule (two injections four weeks apart). Vaccine in all experimental groups was formulated with 10% (v/v) DMSO (except for the groups immunized with the small molecules since they were dissolved in DMSO) and 5% (v/v) Tween-80. As indicated for specific experimental groups, vaccine was also formulated with Aluminium hydroxide (100 μg) or compound 080 (100 nmol, final DMSO concentration 10%). Serum was collected 28 days post-prime (pre-boost blood sample) and 14 days post-boost for antibody detection. rHA-specific IgG were quantified by ELISA. […] The optical density was read at 450 nm Versamax microplate reader with SoftMax Pro Version 5 (both from Molecular Devices) and endpoint titers were calculated using as cutoff three times the optical density of the background.

[1] = human adult PBMCs, 24 hours, compounds at 100 µM (FIG. 7), ELISA, median

Question: How did the “Activation of human adult PBMCs” value (human adult PBMCs; 384 and 96 well assay) turn out when `CNC(=O)c1c(NC(=O)c2ccc(S(=O)(=O)N(C)C)cc2)sc2c1CCC2` [Compound 80] was run?
Answer: induced activation

Question: What about the “Cytokine production (TNF and IL-6) from human adult PBMCs” value (human adult PBMCs; 24 hours, 100 μM, ELISA) of the same compound?
Answer: induces cytokine production

Question: What about the “Adult PBMCs (median ng/ml) IL-6 (N = 7)” value (human adult PBMCs; [1]) of the same compound?
Answer: 1.868 ng/mL

Question: And the “Adult PBMCs (median ng/ml) TNFa (N = 13)” value (human adult PBMCs; [1])?
Answer: 0.1958 ng/mL

Question: What about the “Activation of human TLR2 (NF-κB activation in TLR-expressing HEK-Blue cells)” value (human TLR2) of the same compound?
Answer: activate human TLR2; also recorded: activated the human TLR2-expressing human embryonic kidney (HEK)-Blue cell line

Question: And the “Adjuvant activity in vivo (anti-rHA IgG titers)” value (C57BL/6 mice)?
Answer: exerts adjuvant activity in vivo; also recorded: higher antibody titers; also recorded: demonstrates in vivo adjuvanticity
